Test results published in patent US20130210034A1, “COMPLEX PHOSPHOPROTEIN ACTIVATION PROFILES” (BECKMAN COULTER, INC., priority 2005, published 2013).
Where “and” joins values, the source holds several entries; their conditions need not be identical. Equal entries are not always repeated.

Assays:
Experiment in all cases: Cytokine-stimulated phosphorylation in immunophenotypically defined cell populations from healthy donor BM (flow cytometry);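 for pAKT S/N ratio: Phosphoprotein MFI normalized to lymphocyte MFI as internal negative control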;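 for pS6 S/N ratio: Phosphoprotein MFI normalized to lymphocyte MFI as internal negative control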;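 for pSTAT3 S/N ratio: Phosphoprotein MFI normalized to lymphocyte MFI as internal negative control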;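 for pSTAT5 S/N ratio: Phosphoprotein MFI normalized to lymphocyte MFI as internal negative control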
Format in all cases: cell-based, human
pS6 = conditions: for pS6 Percent (%) Responding Cells, Mean / pS6 S/N ratio: healthy donor BM, mean ± SD
Procedure: (§1) Bone marrow (BM) samples were collected in 7.5 mL Iscove's modified Dulbecco's medium (IMDM) supplemented with 100U penicillin, 0.01 mg/mL streptomycin, and 70 μg/mL heparin sodium salt from 10 patients undergoing hip replacement surgery, who were otherwise healthy. These patients were from a pool of surgery patients, age 49 to 77, and represented […] patients. […] These BM samples were rinsed twice with IMDM to release cells, filtered using a 100 μm Nylon cell strainer to remove marrow particles, and centrifuged for at RT fro 7 minutes at 200 g. The cell pellet was washed twice with sterile IMDM to remove traces of fat and re-suspended in IMDM to a concentration of 3×10^7 cells/mL.
(§2) To assess the signal transduction response after growth factor simulation, a series comprising two sets of tubes including about 3×10^6 cells/100 μL were incubated at 37° C. for 30 minutes. After this pre-incubation period, tubes with then processes with either a stimulant or inhibitor. […] To examine the effects of protein phosphorylation inhibition, tubes were incubated with an inhibitor cocktail comprising 100 μM/100 μL UO126, 1 μM/100 μL LY294002, and 1 μM/100 μL rapamycin. One unstimulated tube receiving no stimulant or inhibitor was processed to assess basal levels of phospho-protein expression. After stimulation the cells were immediately fixed in 10% formaldehyde solution at 37° C. Pre-labeling with CD13, CD16 and CD64 antibodies was carried out 20 minutes prior to formaldehyde fixation. After fixation, one set of tubes was permeabilized without methanol for pAKT, pERK and pS6 staining and the other for 80% methanol permeabilized for pSTAT3 and pSTAT5 staining. After permeablization, the cells were washed in PBS with 2% BSA and blocked by re-suspended in 75 μL of PBS comprising 25% heat inactivated normal mouse serum, 25% normal rabbit serum. To stain cells with fluorescent conjugated monoclonal antibodies, samples were incubated on ice for 45 minutes in 100 μL of an antibody staining solution including either: 1) CD15-Pacific Orange, CD34-Phycoerythrin-Texas Red, CD117-Phycoerythrin-Cyanin 5.5, CD45-Allophycocyanin-Alexa Fluor 750 (or CD45-Pacific Orange, in which case CD15-Pacific Orange was omitted), pS6-Pacific Blue, pERK-Alexa Fluor 488 and pAKT-Alexa Fluor 647 or 2) CD15-Pacific Orange, CD34-Phycoerythrin-Texas Red, CD117-Phycoerythrin-Cyanin 5.5, CD45-Allophycocyanin-Alexa Fluor 750 or CD45-Pacific Blue, pSTAT3-Alexa Fluor 488 and pSTAT5-Phycoerythrin. The stained cells were washed twice with ice cold PBS containing 2% BSA and centrifuged at 800 g for 6 minutes at 4° C. The supernatant was discarded and cells re-suspended in 250 μL of chilled wash buffer for data acquisition. Stained cells were examined using either GALIOS flow cytometer (Beckman Coulter) or CYAN ADP (Beckman Coulter) equipped with 488 nm, 405 nm and 635 nm lasers to detect the degree of fluorescence. Data were analyzed using FCS Express (De Novo Software, CA) analysis software.
(§3) Specific phosphoprotein expression of pERK, pS6, pAKT, pSTAT5, and pSTAT3 was examined in seven discrete phenotypically defined populations based on 7-color immunophenotyping (FIG. 1). The percent of responding (phosphorprotein positive) cells for each of these populations was determined from individual single parameter histograms based on a fixed integration region set on the inhibitor treated control at about 3% positives.

pSTAT5 = conditions: healthy donor BM, mean ± SD
Procedure: as §1, §2, §3

pAKT = conditions: for pAKT Percent (%) Responding Cells, Mean / pAKT S/N ratio: healthy donor BM, mean ± SD
Procedure: as §1, §2, §3

pSTAT3 = conditions: healthy donor BM, mean ± SD
Procedure: as §1, §2, §3

pERK = conditions: for pERK Percent (%) Responding Cells, Mean / pERK S/N ratio: healthy donor BM, mean ± SD
Procedure: as §1, §2, §3

Stem Cell Factor [SCF]
pS6 Percent (%) Responding Cells, Mean (pS6; CD34^+ (CD34^+/CD117^+ cells)): 81.7% and 81.7 ± 16.3%
pS6 S/N ratio (pS6; CD34^+ (CD34^+/CD117^+ cells)): 48.4 and 48.4 ± 39.3
pS6 fraction positive responding (pS6; CD34^−CD117^+ cells, normal BM, non-homogeneous response): 53.8%
pS6 Percent (%) Responding Cells, Mean (pS6; CD117^+ (CD34^−/CD117^+ cells)): 51.9% and 51.9 ± 16.9%
pS6 S/N ratio (pS6; CD117^+ (CD34^−/CD117^+ cells)): 108.2 ± 94.9
pS6 Percent (%) Responding Cells, Mean (pS6; G1, immature myeloid cells): 2.1 ± 1.4%
pS6 S/N ratio (pS6; G1, immature myeloid cells): 3.3 ± 1.9
pS6 Percent (%) Responding Cells, Mean (pS6; G2, intermediate myeloid cells): 2.1 ± 1.2%
pS6 S/N ratio (pS6; G2, intermediate myeloid cells): 2.9 ± 1.8
pS6 Percent (%) Responding Cells, Mean (pS6; G3, mature myeloid cells): 3.8 ± 2.6%
pS6 S/N ratio (pS6; G3, mature myeloid cells): 3.5 ± 2.3
pS6 Percent (%) Responding Cells, Mean (pS6; Mono, monocytes): 43.5 ± 19.9%
pS6 S/N ratio (pS6; Mono, monocytes): 11.2 ± 12.3
pSTAT5 Percent (%) Responding Cells, Mean (pSTAT5; CD34^+ (CD34^+/CD117^+ cells)): 11.6 ± 3.0%
pSTAT5 S/N ratio (pSTAT5; CD34^+ (CD34^+/CD117^+ cells)): 1.5 ± 0.9
pSTAT5 Percent (%) Responding Cells, Mean (pSTAT5; CD117^+ (CD34^−/CD117^+ cells)): 7.4 ± 4.7%
pSTAT5 S/N ratio (pSTAT5; CD117^+ (CD34^−/CD117^+ cells)): 2.2 ± 0.7
pSTAT5 Percent (%) Responding Cells, Mean (pSTAT5; G1, immature myeloid cells): 6.8 ± 8.0%
pSTAT5 S/N ratio (pSTAT5; G1, immature myeloid cells): 3.1 ± 0.7
pSTAT5 Percent (%) Responding Cells, Mean (pSTAT5; G2, intermediate myeloid cells): 4.9 ± 5.6%
pSTAT5 S/N ratio (pSTAT5; G2, intermediate myeloid cells): 3.2 ± 0.7
pSTAT5 Percent (%) Responding Cells, Mean (pSTAT5; G3, mature myeloid cells): 6.9 ± 6.7%
pSTAT5 S/N ratio (pSTAT5; G3, mature myeloid cells): 3.8 ± 0.8
pSTAT5 Percent (%) Responding Cells, Mean (pSTAT5; Mono, monocytes): 9.5 ± 13.8%
pSTAT5 S/N ratio (pSTAT5; Mono, monocytes): 2.5 ± 0.6
pAKT Percent (%) Responding Cells, Mean (pAKT; CD34^+ (CD34^+/CD117^+ cells)): 58.0% and 58.0 ± 27.3%
pAKT S/N ratio (pAKT; CD34^+ (CD34^+/CD117^+ cells)): 7.5 and 7.5 ± 5.7
pAKT Percent (%) Responding Cells, Mean (pAKT; CD117^+ (CD34^−/CD117^+ cells)): 60.6% and 60.6 ± 33.5%
pAKT S/N ratio (pAKT; CD117^+ (CD34^−/CD117^+ cells)): 7.3 ± 5.4
pAKT Percent (%) Responding Cells, Mean (pAKT; G1, immature myeloid cells): 2.9 ± 2.4%
pAKT S/N ratio (pAKT; G1, immature myeloid cells): 2.2 ± 1.1
pAKT Percent (%) Responding Cells, Mean (pAKT; G2, intermediate myeloid cells): 3.9 ± 3.9%
pAKT S/N ratio (pAKT; G2, intermediate myeloid cells): 2.3 ± 1.0
pAKT Percent (%) Responding Cells, Mean (pAKT; G3, mature myeloid cells): 4.2 ± 3.0%
pAKT S/N ratio (pAKT; G3, mature myeloid cells): 2.6 ± 1.2
pAKT Percent (%) Responding Cells, Mean (pAKT; Mono, monocytes): 6.5 ± 8.2%
pAKT S/N ratio (pAKT; Mono, monocytes): 2.4 ± 1.0
pAKT, Normal Sample (pAKT; Table 7 comparison value): 58.0
pSTAT3 Percent (%) Responding Cells, Mean (pSTAT3; CD34^+ (CD34^+/CD117^+ cells)): 7.3 ± 4.3%
pSTAT3 S/N ratio (pSTAT3; CD34^+ (CD34^+/CD117^+ cells)): 1.9 ± 0.2
pSTAT3 Percent (%) Responding Cells, Mean (pSTAT3; CD117^+ (CD34^−/CD117^+ cells)): 2.6 ± 1.4%
pSTAT3 S/N ratio (pSTAT3; CD117^+ (CD34^−/CD117^+ cells)): 2.5 ± 0.6
pSTAT3 Percent (%) Responding Cells, Mean (pSTAT3; G1, immature myeloid cells): 3.0 ± 3.5%
pSTAT3 S/N ratio (pSTAT3; G1, immature myeloid cells): 3.3 ± 0.5
pSTAT3 Percent (%) Responding Cells, Mean (pSTAT3; G2, intermediate myeloid cells): 2.2 ± 1.8%
pSTAT3 S/N ratio (pSTAT3; G2, intermediate myeloid cells): 3.3 ± 0.5
pSTAT3 Percent (%) Responding Cells, Mean (pSTAT3; G3, mature myeloid cells): 4.7 ± 4.0%
pSTAT3 S/N ratio (pSTAT3; G3, mature myeloid cells): 3.6 ± 0.6
pSTAT3 Percent (%) Responding Cells, Mean (pSTAT3; Mono, monocytes): 4.4 ± 2.0%
pSTAT3 S/N ratio (pSTAT3; Mono, monocytes): 2.4 ± 0.3
pERK Percent (%) Responding Cells, Mean (pERK; CD34^+ (CD34^+/CD117^+ cells)): 89.8% and 89.8 ± 6.9%
pERK S/N ratio (pERK; CD34^+ (CD34^+/CD117^+ cells)): 13.3 and 13.3 ± 4.9
pERK Percent (%) Responding Cells, Mean (pERK; CD117^+ (CD34^−/CD117^+ cells)): 67.7% and 67.7 ± 20.1%
pERK S/N ratio (pERK; CD117^+ (CD34^−/CD117^+ cells)): 8.6 ± 3.2
pERK Percent (%) Responding Cells, Mean (pERK; G1, immature myeloid cells): 1.6 ± 0.8%
pERK S/N ratio (pERK; G1, immature myeloid cells): 2.9 ± 0.6
pERK Percent (%) Responding Cells, Mean (pERK; G2, intermediate myeloid cells): 2.8 ± 2.1%
pERK S/N ratio (pERK; G2, intermediate myeloid cells): 2.7 ± 0.5
pERK Percent (%) Responding Cells, Mean (pERK; G3, mature myeloid cells): 6.5 ± 7.2%
pERK S/N ratio (pERK; G3, mature myeloid cells): 3.1 ± 0.6
pERK Percent (%) Responding Cells, Mean (pERK; Mono, monocytes): 13.6 ± 3.6%
pERK S/N ratio (pERK; Mono, monocytes): 3.2 ± 2.1
pERK, Normal Sample (first AML5 line) (pERK; Table 7 comparison value, matches S/N ratio of Table 1): 13.3
pERK, Normal Sample (pERK; Table 7 comparison value, matches percent responding CD34^+ cells of Tables 1-5): 89.8
